Data set [1] is described as follows: stability of the crystalline form. The format is physicochemical.
A short description of data set [2]: dissolution properties compared with the known forms. Format: physicochemical.

Molecules are shown by their SMILES.

Take `O=C1Nc2ccc(Cl)cc2[C@@](C#CC2CC2)(C(F)(F)F)O1` [efavirenz form H1, (4S)-6-chloro-4-(cyclopropylethynyl)-1,4-dihydro-4-(trifluoromethyl)-2H-3,1-benzoxazin-2-one]: the “stability over the time” value in data set [1] is on record as “stable over the time”. For the same compound, the “stability relative to reported forms” value in data set [1] (versus Form I, Form II, Form III, Form 1, Form 2, Form 3, Form 4 and Form 5) is “at least as stable as the reported forms”. For the compound `O=C1Nc2ccc(Cl)cc2[C@@](C#CC2CC2)(C(F)(F)F)O1` [amorphous efavirenz, (4S)-6-chloro-4-(cyclopropylethynyl)-1,4-dihydro-4-(trifluoromethyl)-2H-3,1-benzoxazin-2-one], the dissolution properties result in data set [2] was “better dissolution properties”.

The values above are taken from patent publication US8466279B2, “Polymorphs of efavirenz” (Hetero Drugs Limited, priority 2004, dated 2013).
